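Five compound concentrations were applied to cells in 96-well plates for 48 hours; endpoints were derived by simple linear interpolation of the resulting dose-response curve. GI50 marks 50% less growth.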 The source made the active and inactive calls. No stated cut-off is given here; in the data, active = GI50 up to about 1.1 µM and inactive = higher.
Legend:
Experiment in all cases: inhibition of tumour cell growth, NCI panel, 48 h
SNB-19 = test system: SNB-19
UACC-257 = test system: UACC-257
ACHN = test system: ACHN
TK-10 = test system: TK-10
SNB-78 = test system: SNB-78
HCT-116 = test system: HCT-116
SNB-75 = test system: SNB-75
A549 = test system: A549
RXF 393 = test system: RXF 393
UO-31 = test system: UO-31
CAKI-1 = test system: CAKI-1
XF498 = test system: XF498
DMS-114 = test system: DMS-114
786-0 = test system: 786-0
U-251 = test system: U-251
UACC-62 = test system: UACC-62
KM-20L2 = test system: KM-20L2
HCC 2998 = test system: HCC 2998
SK-MEL-28 = test system: SK-MEL-28
SK-OV-3 = test system: SK-OV-3
DLD-1 = test system: DLD-1
SF-295 = test system: SF-295
OVCAR-8 = test system: OVCAR-8
SK-MEL-2 = test system: SK-MEL-2
SK-MEL-5 = test system: SK-MEL-5
SR = test system: SR
RXF 631 = test system: RXF 631
M19-MEL = test system: M19-MEL
M14 = test system: M14
OVCAR-4 = test system: OVCAR-4
CCRF-CEM = test system: CCRF-CEM
LXFL 529 = test system: LXFL 529
SF-268 = test system: SF-268
RPMI-8226 = test system: RPMI-8226
A498 = test system: A498
NCI-H23 = test system: NCI-H23
SW-620 = test system: SW-620
SN12C = test system: SN12C
NCI-H460 = test system: NCI-H460
KM12 = test system: KM12
COLO 205 = test system: COLO 205
LOX IMVI = test system: LOX IMVI
K562 = test system: K562
EKVX = test system: EKVX
OVCAR-3 = test system: OVCAR-3
MOLT-4 = test system: MOLT-4
NCI-H522 = test system: NCI-H522
HOP-92 = test system: HOP-92
HOP-62 = test system: HOP-62
HCT-15 = test system: HCT-15
DMS-273 = test system: DMS-273
HL-60 = test system: HL-60

COC(=O)/C(C#N)=C(\N)C(Cl)(Cl)Cl
GI50 (SNB-19): 40800 nM (inactive)
GI50 (UACC-257): 3080 nM (inactive)
GI50 (ACHN): 2370 nM (inactive)
GI50 (TK-10): 2550 nM (inactive)
GI50 (SNB-78): 6180 nM (inactive)
GI50 (HCT-116): 643 nM (active)
GI50 (SNB-75): 3850 nM (inactive)
GI50 (A549): 3330 nM (inactive)
GI50 (RXF 393): 1610 nM (inactive)
GI50 (UO-31): 27100 nM (inactive)
GI50 (CAKI-1): 5400 nM (inactive)
GI50 (XF498): 1780 nM (inactive)
GI50 (DMS-114): 3730 nM (inactive)
GI50 (786-0): 4110 nM (inactive)
GI50 (U-251): 16500 nM (inactive)
GI50 (UACC-62): 1370 nM (inactive)
GI50 (KM-20L2): 29700 nM (inactive)
GI50 (HCC 2998): 3060 nM (inactive)
GI50 (SK-MEL-28): 2000 nM (inactive)
GI50 (SK-OV-3): 1810 nM (inactive)
GI50 (DLD-1): 1170 nM (inactive)
GI50 (SF-295): 5090 nM (inactive)
GI50 (OVCAR-8): 2150 nM (inactive)
GI50 (SK-MEL-2): 5530 nM (inactive)
GI50 (SK-MEL-5): 1690 nM (inactive)
GI50 (SR): 449 nM (active)
GI50 (RXF 631): 2780 nM (inactive)
GI50 (M19-MEL): 2430 nM (inactive)
GI50 (M14): 1430 nM (inactive)
GI50 (OVCAR-4): 2670 nM (inactive)
GI50 (CCRF-CEM): 338 nM (active)
GI50 (LXFL 529): 2700 nM (inactive)
GI50 (SF-268): 3920 nM (inactive)
GI50 (RPMI-8226): 1570 nM (inactive)
GI50 (A498): 3400 nM (inactive)
GI50 (NCI-H23): 4820 nM (inactive)
GI50 (SW-620): 456 nM (active)
GI50 (SN12C): 2870 nM (inactive)
GI50 (NCI-H460): 4330 nM (inactive)
GI50 (KM12): 4320 nM (inactive)
GI50 (COLO 205): 2320 nM (inactive)
GI50 (LOX IMVI): 2650 nM (inactive)
GI50 (K562): 442 nM (active)
GI50 (EKVX): 4680 nM (inactive)
GI50 (OVCAR-3): 3300 nM (inactive)
GI50 (MOLT-4): 379 nM (active)
GI50 (NCI-H522): 1900 nM (inactive)
GI50 (HOP-92): 2990 nM (inactive)
GI50 (HOP-62): 16100 nM (inactive)
GI50 (HCT-15): 2200 nM
GI50 (DMS-273): 3450 nM (inactive)
GI50 (HL-60): 319 nM (active)

From ChEMBL document CHEMBL1201862, “PubChem BioAssay data set” (2004)
